Laboratory results reported in patent publication US10368545B2, “Substituted 2-thioimidazolylcarboxamides as pesticides” (BAYER CROPSCIENCE AKTIENGESELLSCHAFT, priority 2015, dated 2019).
Like-named read-outs stand apart in the source and are kept apart here.

Columns and labels:
[1] = system: green peach aphid (Myzus persicae); assay: Myzus persicae spray test (Chinese cabbage leaf discs); format: in vivo; conditions: for pest or weed control at 500 g/ha: Myzus persicae, foliar, read-out: efficacy (aphids killed)
Protocol: Myzus persicae—Spray Test
Solvent: 78 parts by weight of acetone • • 1.5 parts by weight of dimethylformamide
(§1) Emulsifier: alkylaryl polyglycol ether
(§2) To produce a suitable active compound preparation, 1 part by weight of active compound is dissolved using the stated parts by weight of solvent and made up with water containing an emulsifier concentration of 1000 ppm until the desired concentration is attained. To produce further test concentrations, the preparation is diluted with emulsifier-containing water.
Discs of Chinese cabbage leaves (Brassica pekinensis) infested by all stages of the green peach aphid (Myzus persicae) are sprayed with an active compound preparation of the desired concentration.
After 5 or 6 days, the efficacy in % is determined. 100% means that all the aphids were killed; 0% means that no aphids were killed.

[2] = system: green peach aphid (Myzus persicae); assay: Contrasting example: Myzus persicae spray test (MYZUPE); format: in vivo; conditions: for pest or weed control at 100 g/ha: Myzus persicae, 144 h, read-out: % efficacy
Protocol: Myzus persicae—Spray Test (MYZUPE)
Solvents: 78.0 parts by weight of acetone • • 1.5 parts by weight of dimethylformamide
as §1, §2
Discs of Chinese cabbage leaves (Brassica pekinensis), infested by all stages of the green peach aphid (Myzus persicae) are sprayed with an active compound preparation of the desired concentration.
After the desired period of time, the efficacy in % is determined. 100% means that all aphids were killed; 0% means that no aphids were killed.

[3] = log P by HPLC on reversed-phase C18 columns (OECD Guideline 117); format: physicochemical
Protocol: The log P values were determined in accordance with OECD Guideline 117 (EC Directive 92/69/EEC) by HPLC (high-performance liquid chromatography) using reversed-phase (RP) columns (C18), by the following methods:
[a] The LC-MS determination in the acidic range was carried out at pH 2.7 with 0.1% aqueous formic acid and acetonitrile (contains 0.1% formic acid) as mobile phases; linear gradient from 10% acetonitrile to 95% acetonitrile.
[b] LC-MS determination in the neutral range was carried out at pH 7.8 with 0.001 molar aqueous ammonium hydrogencarbonate solution and acetonitrile as mobile phases; linear gradient from 10% acetonitrile to 95% acetonitrile.

[4] = application rate 500 g/ha, after 5 or 6 days, Chinese cabbage leaf discs
[5] = reversed-phase C18 HPLC column, pH 2.7, acidic range, pH 2.7, 0.1% aqueous formic acid / acetonitrile, read-out: log P[a]
[6] = reversed-phase C18 HPLC column, pH 7.8, neutral range, pH 7.8, 0.001 molar aqueous ammonium hydrogencarbonate / acetonitrile, read-out: log P[n]
[7] = reversed-phase C18 HPLC column, pH 2.7, method [a], read-out: logP[a]
[8] = reversed-phase C18 HPLC column, pH 7.8, method [b], read-out: logP[b]

Row | SMILES | logP[a] ([3]; method [a]) | logP[b] ([3]; method [b]) | % efficacy ([2]; MYZUPE, 100 g ai/ha, 6 dat) [%] | efficacy (aphids killed) [1, 4] [%] | also measured
1 | CN(C(=O)c1cnc(SCCCF)n1C)c1cccnc1 [I-A-48] | 1.11 | 1.40 | – | 100 | % efficacy ([2]; MYZUPE, 100 g ai/ha, 5 dat): 90%
2 | CN(C(=O)c1cnc(SC2CCSCC2)n1C)c1cccnc1 [I-A-51] | 1.47 | 1.73 | – | 100 | % efficacy ([2]; MYZUPE, 100 g ai/ha, 5 dat): 100%
3 | Cc1cc(C)nc(Sc2ncc(C(=O)N(C)c3cccnc3)n2C)n1 [I-A-1] | – | – | – | – | pest or weed control at 500 g/ha [1, 4]: 100%; pest or weed control at 100 g/ha ([2]; MYZUPE, 100 g ai/ha, 6 dat): 100%; log P[a] ([3]; acidic range, pH 2.7, 0.1% aqueous formic acid / acetonitrile): 1.26; log P[n] ([3]; neutral range, pH 7.8, 0.001 molar aqueous ammonium hydrogencarbonate / acetonitrile): 1.46; chromatographic logP [3, 5]: 1.31; chromatographic logP [3, 6]: 1.41
4 | CN(C(=O)c1cnc(SCCSCC(F)(F)F)n1C)c1cccnc1 [I-A-50] | 1.94 | 2.10 | – | 100 | % efficacy ([2]; MYZUPE, 100 g ai/ha, 5 dat): 100%
5 | CN(C(=O)c1cnc(Sc2ncccn2)n1C)c1cccnc1 [I-A-3] | – | – | – | – | pest or weed control at 500 g/ha [1, 4]: 100%; pest or weed control at 100 g/ha ([2]; MYZUPE, 100 g ai/ha, 6 dat): 90%; chromatographic logP [3, 5]: 0.69; chromatographic logP [3, 6]: 0.98
6 | CN(C(=O)c1cnc(Sc2nnc(C(F)(F)F)n2C)n1C)c1cccnc1 [I-A-138] | 1.12 | 1.26 | – | 100 | % efficacy ([2]; MYZUPE, 100 g ai/ha, 5 dat): 90%
7 | COc1cc(OC)nc(CSc2ncc(C(=O)N(C)c3cccnc3)n2C)n1 [I-A-128] | 1.41 | 1.68 | 90 | 90 | –
8 | CN(C(=O)c1cnc(SCCC(F)(F)F)n1C)c1cccnc1 [I-A-47] | 1.65 | 1.84 | – | 100 | % efficacy ([2]; MYZUPE, 100 g ai/ha, 5 dat): 90%
9 | CC(C)Sc1ncc(C(=O)N(C)c2cccnc2)n1C [I-A-19] | 1.23 | 1.53 | 90 | 100 | –
10 | CN(C(=O)c1cnc([S+]([O-])c2ccccn2)n1C)c1cccnc1 (stereo not shown) [I-A-86] | 0.59 | 0.80 | 90 | 90 | –
11 | CN(C(=O)c1cn(C)c(Sc2ncccn2)n1)c1cccnc1 [I-B-1] | – | – | – | – | pest or weed control at 500 g/ha [1, 4]: 100%; pest or weed control at 100 g/ha ([2]; MYZUPE, 100 g ai/ha, 6 dat): 90%; chromatographic logP [3, 5]: 0.42; chromatographic logP [3, 6]: 0.83
12 | Cc1ccc(Sc2ncc(C(=O)N(C)c3cccnc3)n2C)nc1 [I-A-109] | – | – | 70 | 90 | –
13 | COc1cc(OC)nc(Sc2ncc(C(=O)N(C)c3cccnc3)n2C)n1 [I-A-102] | 1.61 | 1.79 | 90 | 100 | –
14 | COCCSc1ncc(C(=O)N(C)c2cccnc2)n1C [I-A-18] | 0.76 | 1.14 | 90 | 100 | –
15 | CN(C(=O)c1cnc(SCC(F)(F)C(F)F)n1C)c1cccnc1 [I-A-49] | 1.55 | 1.71 | – | 100 | % efficacy ([2]; MYZUPE, 100 g ai/ha, 5 dat): 90%
16 | CCSCCSc1ncc(C(=O)N(C)c2cccnc2)n1C [I-A-14] | 1.61 | 1.87 | 90 | 90 | –
17 | CN(C(=O)c1cnc(Sc2cccc(C(F)(F)F)c2)n1C)c1cccnc1 [I-A-61] | – | – | 90 | 90 | –
18 | CN(C(=O)c1cnc(SC(F)(F)F)n1C)c1cccnc1 [I-A-37] | – | – | – | – | pest or weed control at 500 g/ha [1]: 100%; pest or weed control at 100 g/ha [2]: 100%; chromatographic logP [3, 7]: 1.29; chromatographic logP [3, 8]: 1.45
19 | CN(C(=O)c1cnc(S(C)(=O)=O)n1C)c1cccnc1 [I-A-8] | 0.45 | 0.67 | 90 | 100 | –
20 | CN(C(=O)c1cnc([S+]([O-])Cc2ccccc2)n1C)c1cccnc1 (stereo not shown) [I-A-130] | 1.18 | – | – | 90 | % efficacy ([2]; MYZUPE, 100 g ai/ha, 5 dat): 90%
21 | CCOCCSc1ncc(C(=O)N(C)c2cccnc2)n1C [I-A-22] | 1.04 | 1.41 | 90 | 100 | –
22 | CN(C(=O)c1cnc(SC(F)F)n1C)c1cccnc1 [I-A-38] | – | – | – | – | pest or weed control at 500 g/ha [1]: 90%; pest or weed control at 100 g/ha [2]: 70%; chromatographic logP ([3]; pH 2.7, method [a], read-out: logP[a]): 0.91; chromatographic logP ([3]; pH 7.8, method [b], read-out: logP[b]): 1.17
23 | CSc1ncc(C(=O)N(C)c2cccnc2)n1C [I-A-45] | – | – | – | – | pest or weed control at 500 g/ha [1, 4]: 100%; pest or weed control at 100 g/ha ([2]; MYZUPE, 100 g ai/ha, 6 dat): 90%; chromatographic logP [3, 7]: 0.54; chromatographic logP [3, 8]: 1.04
24 | CN(C(=O)c1cnc(Sc2cc(Cl)c(Cl)cc2Cl)n1C)c1cccnc1 [I-A-56] | 2.86 | 2.92 | 70 | – | –
25 | CNC(=O)C[S+]([O-])c1ncc(C(=O)N(C)c2cccnc2)n1C (stereo not shown) [I-A-43] | – | – | – | – | pest or weed control at 100 g/ha ([2]; MYZUPE, 100 g ai/ha, 6 dat): 70%; chromatographic logP [3, 7]: 0.27; chromatographic logP [3, 8]: 0.22
26 | CN(C(=O)c1cnc([S+]([O-])c2cc(Cl)cc(Cl)c2)n1C)c1cccnc1 (stereo not shown) [I-A-77] | – | – | 70 | 90 | –

The next lines start with results.

Row | logP[a] ([3]; method [a]) | logP[b] ([3]; method [b]) | SMILES | % efficacy ([2]; MYZUPE, 100 g ai/ha, 6 dat) [%] | efficacy (aphids killed) [1, 4] [%] | also measured
27 | 2.0 | 2.12 | CSc1cccc(Sc2ncc(C(=O)N(C)c3cccnc3)n2C)c1 [I-A-9] | 70 | – | efficacy (aphids killed) ([1]; application rate 20 g/ha, after 5 or 6 days, Chinese cabbage leaf discs): 90%
28 | 2.63 | 2.71 | CN(C(=O)c1cnc(Sc2ccc(Cl)c(C(F)(F)F)c2)n1C)c1cccnc1 [I-A-64] | 70 | 90 | –
29 | 1.27 | 1.56 | CN(C(=O)c1cnc(Sc2nc3ccccc3n2C)n1C)c1cccnc1 [I-A-134] | – | 100 | % efficacy ([2]; MYZUPE, 100 g ai/ha, 5 dat): 100%
30 | 1.39 | 1.84 | CN(C(=O)c1cnc(Sc2ncc(-c3ccccc3)n2C)n1C)c1cccnc1 [I-A-141] | – | 100 | % efficacy ([2]; MYZUPE, 100 g ai/ha, 5 dat): 70%
31 | 1.45 | 1.52 | CN(C(=O)c1cnc(Sc2ccc(Cl)nc2)n1C)c1cccnc1 [I-A-70] | 70 | 100 | –
32 | 1.18 | 1.39 | CN(C(=O)c1cnc(Sc2ccc(F)cn2)n1C)c1cccnc1 [I-A-94] | 90 | 100 | –
33 | 0.56 | 0.85 | CN(C(=O)c1cnc(SCc2ncccn2)n1C)c1cccnc1 [I-A-112] | 90 | 100 | –
34 | 0.63 | 1.16 | CN(C(=O)c1cnc(SCc2ccccn2)n1C)c1cccnc1 [I-A-117] | 90 | 90 | –
35 | 1.31 | 1.47 | Cc1nc(Sc2ncc(C(=O)N(C)c3cccnc3)n2C)oc1C [I-A-142] | – | 90 | % efficacy ([2]; MYZUPE, 100 g ai/ha, 5 dat): 90%
36 | 1.53 | 1.62 | CN(C(=O)c1cnc(S(=O)(=O)c2ccc(F)cc2)n1C)c1cccnc1 [I-A-82] | 90 | 90 | –
37 | 2.55 | 2.58 | CN(C(=O)c1cnc(Sc2cc(Cl)ccc2Cl)n1C)c1cccnc1 [I-A-60] | 70 | 90 | –
38 | 1.89 | 2.03 | Cc1ccc(Sc2ncc(C(=O)N(C)c3cccnc3)n2C)cc1 [I-A-12] | 70 | 90 | –
